The record followed here is US20080221074A1, “Drug Screen and Treatment Method” (priority 2006, published 2008).

The IC50 is the concentration that gives 50% inhibition.

Test [1] relates to human whole blood. The experiment in a line: γ-interferon production in human whole blood exposed to LPS. The class given is cell-based. Conditions: 24 hours with LPS; 16α-bromoepiandrosterone at 100 ng/mL. The protocol: Anti-inflammation activity in human cells in vitro. […] The amount of γ-interferon was measured in the growth medium when the cells had been incubated in the presence of LPS for 24 hours.

Test [2] relates to lethal amount of bacterial lipopolysaccharide (LPS). The experiment in a line: lethal shock protocol. The test is classed as in vivo, mice. On the procedure: Treatment of lethal inflammation/shock. Two compounds, 16α-bromoepiandrosterone (3β-hydroxy-16α-bromoandrostane-17-one) and 3β,16α-dihydroxy-17-oxoandrostane, were used in a lethal shock protocol. In one protocol, 3 mg of 16α-bromoepiandrosterone was administered to one group of animals by oral gavage, while another group received 3 mg of 16α-bromoepiandrosterone by subcutaneous injection. A group of control animals received a placebo control. In this protocol, the 16α-bromoepiandrosterone was administered to mice at 24 hours before and at 1 hour after administration of a lethal amount of bacterial lipopolysaccharide (LPS). By the end of the observation period, 72 hours after LPS administration, none of the vehicle treated placebo control animals had survived, while 65% of animals that received 16α-bromoepiandrosterone by oral administration survived. 50% of the animals that received 16α-bromoepiandrosterone by subcutaneous injection survived. Animals that survived for 72 hours all recovered from the LPS exposure.
In a second assay, 16α-bromoepiandrosterone or 3β,16α-dihydroxy-17-oxoandrostane was administered to mice by oral gavage at 24 hours before and 1 hour after administration of a lethal amount of LPS. A vehicle treated group of animals was used as the placebo control.

The subject of test [3] is CD4^+CD25^+ T regulatory cells. The experiment in a line: generation of CD4+CD25+ T regulatory cells after adoptive transfer. To be noted: 1 mg/animal/day s.c. 14 days. The test is classed as in vivo, B6 mice. The protocol: Inhibition of the generation of CD4^+CD25^+ T regulatory cells or their activity in vivo. Purified CD4^+CD25^− T cells (5×10^6 cells) from congenic B6.SJL mice (CD45.1) per group were adoptively transferred into each of five B6 mice (CD45.2). The purified CD4^+CD25^− T cells were obtained by fluorescence activated cell sorting (FACS) of the donor cells at least twice. Vehicle (0.1% carboxymethylcellulose, 0.9% saline, 2% tween 80, 0.05% phenol) or 16α-bromoepiandrosterone in vehicle (1 mg/animal/day in 100 μL vehicle) was injected subcutaneously before transfer of the cells from the CD45.1 donor animals and the injections were continued daily for 14 days. Thymus, lymph nodes and spleens were collected from the animals at day 15. Samples of thymus, lymph node and spleen were obtained from individuals, and the cells were labeled with fluorescent antibody that bound to CD4, CD25, CD103 or Foxp3. The cells were then analyzed by flow cytometry to enumerate the numbers of the various cell types. The remainder of cells from lymph nodes and spleen of each treatment group were pooled, pre-enriched for CD4^+CD25^+ cells and then analyzed for CD4^+CD25^+ that arose from the host (endogenous CD45.2 cells) and from donor cells (CD45.1 cells that converted from the CD4^+CD25^− donor phenotype to the CD4^+CD25^+ phenotype after residing in vivo for 15 days). The cells were analyzed by cell sorter. To test for regulatory function, varying numbers of purified converted CD45.1 or endogenous CD45.2 CD4^+CD25^+ cells were co-cultured with 2000 CD4^+CD25^− responder cells, 1×10^5 irradiated spleen cells as antigen presenting cells, and […] of anti-CD3 antibody. Fresh CD4^+CD25^+ cells were used as controls. Proliferation was determined by measurement of ^3H-thymidine uptake 4 days after initiation of culture.

Test [4] relates to Pseudomonas aeruginosa. The experiment in a line: clearance of Pseudomonas aeruginosa infection from lung tissue. The test is classed as in vivo, CFTR mice. Conditions: 40 mg/kg; day 10; vs vehicle. The protocol: Clearance of bacteria from lung tissue. The capacity of 16α-bromoepiandrosterone to clear a Pseudomonas aeruginosa infection from lung tissue was shown using a previously published protocol, A. van Heeckeren et al., J. Clin. Invest., 100(11):2810-2815 […]; A. van Heeckeren et al., Am. J. Respir. Crit. Care Med., 161:271-279 2000. The protocol was conducted in CFTR mice, which are used as an animal model for human cystic fibrosis, S. D. Freedman et al., Proc. Natl. Acad. Sci. USA, 96(24):13995-14000 1999; W. Zeng et al., Am. J. Physiol. Cell. Physiol. […] Establishment of chronic P. aeruginosa infection using agarose beads containing bacteria (50 μL containing about 6.1×10^4 CFU/animal) was published earlier, J. R. Starke et al., Pediatr. Res., 22:698-702 1987. Two groups of mice (n=9 for each group) were treated with 40 mg/kg of 16α-bromoepiandrosterone or vehicle (control) and the bacterial burden in the lungs of the animals was determined at 10 days after introduction of the agarose beads into the lung.

Test [5] has as its system NF-κB. The experiment in a line: inhibition of NF-κB activation in NF-κB-bla THP-1 cells after LPS stimulation. The class given is cell-based, human. An outline of the steps: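 THP-1 monocytes stably carrying an NF-κB response element–driven β-lactamase reporter, plated about 24 h before activation with LPS at 0.2 ng/mL. Reporter activity measured by FRET ratiometric detection; values are averages of usually 2-4 runs per compound.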

`C[C@]12CC[C@H](O)C[C@@H]1CC[C@@H]1[C@@H]2CC[C@]2(C)C(=O)[C@H](Br)C[C@@H]12` [16α-bromoepiandrosterone]: the “production of γ-interferon” value in test [1] was “Reduced production”. Also, the “survival 72 hours after LPS” value in test [2] (3 mg oral gavage 24 h before and 1 h after LPS) came out at 65%. Besides, the “survival 72 hours after LPS” value in test [2] (3 mg subcutaneous injection 24 h before and 1 h after LPS) is on record as 50%. The “survival 72 hours after LPS” value in test [2] (second assay, oral gavage 24 h before and 1 h after LPS) is given as 80%. In test [3], the “donor CD45.1 CD4^+CD25^+CD103^+ cells of total donor CD4^+CD25^+ cells in spleen” value was found to be 9.63% and the “proportion of endogenous CD45.2 CD4^+CD25^+CD103^+ Treg cells in spleen” value is recorded as 13.40%. Further, in test [3] (day 15), the “donor CD45.1 CD4^+CD25^+ cell number in spleen” value is recorded as 0.62×10^5 cells, the “endogenous CD45.2 CD4^+CD25^+ cell number in spleen” value is 5.49×10^6 cells and the “endogenous CD45.2 CD4^+CD25^+ cells in the thymus” value is 1.59×10^5. Also, the “bacterial burden in the lungs” value in test [4] is “reduced”. Moreover, the “maximum inhibition of NF-κB” value in test [5] was found to be 100%. In addition, in test [5] (LPS stimulation, 50% of the compound's maximum inhibition, averages, read-out: IC50), the IC50 amounted to 8.8 µM.
